Data reported in US20110251085A1, “IN VITRO METHOD TO DETERMINE WHETHER A DRUG CANDIDATE ACTIVE AGAINST A TARGET PROTEIN IS ACTIVE AGAINST A VARIANT OF SAID PROTEIN” (VIVALIS, priority 2008, published 2011).
Values joined by “and” are separate entries in the source; they are usually repeats but may differ in a detail not shown here. Equal entries are not always repeated.

Experiments:
native NS5BΔ21 = biological target: T1, native NS5BΔ21 (Hepatitis C virus genotype 1b, UniProt P26662); experiment: 3D-Screen-NS5B platform, luciferase reporter, Hela cells, native NS5BΔ21; type: cell-based, HCV genotype 1b; conditions: for inhibition of the luciferase signal (in words): native NS5B platform, Hela cells; for IC50: native NS5BΔ21, 3D-sensor N21C272, 24 hours, read-out: IC50 (luciferase inhibition)
T1 construct: expressed in transfected cells; host or cells: Hela cells, plasmid pVVS478
Experimental: (§1) Transfections were performed for 2 hours in 100 mm dishes in 2 to 4 million cells with 5 to 20 ug of total DNA complexed to jetPEI (PolyPLus transfection, Illkirch, France) with a N/P ratio of 8 The optimal ratio between the plasmids encoding for the luciferase reporter, the target and the selected 3Dsensor was: 3 ug/1 ug/0.5 ug. Cells were dissociated and 25000 cells per well were seeded in 96 well culture treated plates (BD Biosciences, Erembodegem, Belgium).
Compound library's plates were thawed at room temperature. Drugs were handled by a Genesis workstation (Tecan, Lyon, France) and added to the cells at a 5 uM (in 0.5% DMSO) final concentration. Screening was performed by runs of twenty plates. Hits were identified by measurement of the luciferase activity.
(§2) Cell culture supernatant was discarded and 100 ul of Lysis buffer were added to each well. Following […] of vigorous shaking, the lysate was transferred to white opaque 96 well-plates and 100 ul of Luciferin buffer were added. Chemi-luminescence measurement was performed immediately using a Microlumat LB96 luminometer (Berthold, Thoiry, France) with 1 or 10 sec integration time.
Selected hits were synthesized and tested at concentrations varying between 0.01 uM and 100 uM final concentration so as to determine their IC50 on 3 independent experiments.
3D-sensors confirmed in yeast were further investigated in human cells. Among the reasons of choosing Hela cells figured their wide use, easiness of manipulation and capacity of replicating subgenomic HCV replicons (Zhu et al., 2003; Kato et al., 2005).
To validate whether drug's action on our system was stokiometric or not, Hela cells were transiently transfected with three expression plasmids encoding the reporter gene luciferase, the target protein and the conformation sensitive peptide N21C272. After incubation with increasing amounts of reference drugs cVVS-023476 or cVVS-023477, luciferase expression was measured.

[1] = system: NS5BΔ21 Indol sensitive mutants; type: cell-based, HCV genotype 1b
Experimental: (§3) Percentages of reporter's inhibition were represented for cells incubated with a specific NS5B inhibitors at increasing concentrations for 24 hours.
as §1, §2
(§4) After incubation for 24 hours with increasing concentrations of cVVS023477 (a compound belonging to the Benzothiadiazin family) or cVVS-023476 (a compound belonging to the Indol N Acetamid family), luciferase expression was measured.

native NS4A-NS3 protease = biological target: T2, native NS4A-NS3 protease (Hepatitis C virus genotype 1b, UniProt P26662, I1158V/V1140I); experiment: 3D-Screen NS4A-NS3 protease platform, luciferase reporter, Hela cells, native; type: cell-based, HCV genotype 1b; conditions: native NS4A-NS3 protease platform, Hela cells
T2 construct: the NS3 protease (residues 3-181); expressed in transfected cells; host or cells: Hela cells
Experimental: (§5) Cell culture supernatant was discarded and 100 ul of Lysis buffer were added to each well. Following 10 nm of vigorous shaking, the lysate was transferred to white opaque 96 well-plates and 100 ul of Luciferin buffer were added. Chemi-luminescence measurement was performed immediately using a Microlumat LB96 luminometer (Berthold, Thoiry, France) with 1 or 10 sec integration time.
3D-sensors confirmed in yeast were further investigated in Hela cells.

[2] = system: NS5B from genotype 1a or 1b; experiment: Genotype profiling with the 3D-Screen platform, 3D-sensor N21I4; type: cell-based, HCV genotypes 1a and 1b; conditions: Huh-7 cells, genotype 1a versus 1b, increasing amounts
Text: Percentages of luciferase inhibition in the presence of the Indol Acetamid NS5B specific ligand cVVS-023476 were represented for N21 I4 peptide targeting NS5B from genotype 1a and 1b.
HCV variants are classified into six genotypes (from 1 to 6) associated with a lower case letter to indicate the subtype (Le Guillou-Guillemette et al., 2007). Since sensitivity to drugs could vary from one HCV genotype to the other (Manns et al., 2007), the investors tested whether the 3D-Screen platform could be able to discriminate such differences which is highly important for preclinical profiling of drug candidates. The inventors thus verified that the 3D-Sensor N21I4 did interact with the polymerase NS5B from genotypes 1a and 1b in Hela and Huh7 cells in an equivalent way.
Huh-7 cells were transiently transfected with three expression plasmids encoding the reporter gene luciferase, the target NS5B from genotype 1a or 1b and the conformation sensitive peptide N21I4. After incubation with increasing amounts of cVVS-023476, luciferase expression was measured.

[3] = biological target: native NS4A-NS3 full length protein (Hepatitis C virus genotype 1b, UniProt P26662); experiment: 3D-Screen NS4A-NS3 full length platform, luciferase reporter, Hela cells, native; type: cell-based, HCV genotype 1b; parameters: the GSGS linker and the NS3 protease (residues 3-631); expressed in transfected cells; conditions: native NS4A-NS3 full length platform, Hela cells
Experimental: as §5

NS5BΔ21 = biological target: T3, NS5BΔ21 (Hepatitis C virus genotype 1b, UniProt P26662); type: cell-based, HCV genotype 1b; conditions: selective medium lacking histidine, leucine and tryptophane, supplemented with ligand, X-Gal overlay
T3 construct: lexA/truncated HCV polymerase lacking the C-terminal 21 amino-acids fusion protein as a bait; expressed in transfected cells; host or cells: Saccharomyces cerevisiae L40, plasmid pVVS468
Experimental: Yeast cells carrying the bait (NS5BΔ21-LexA) were transformed with the prey represented by a library of random peptides (in frame with the viral VP16 activation domain). […] The interacting peptides were then tested in presence of ligands known to induce conformational changes in the bait NS5B.
The naïve yeast was transformed with the pVVS468 (NS5BΔ21 fused to LexA) according to the Lithium Acetate transformation protocol (Schiestl et al, 1989). […] Resulting double transformants were spread on SD Agar medium lacking Tryptophan and Leucine, and incubated for 48 hours at 30° C. Colonies were then scraped and mixed. 1/500th of the suspension obtained was plated on SD Agar medium lacking Tryptophan, Leucine and Histidine to identify HIS3 reporter's activation. After 3 to 5 days of growth, an X-Gal overlay was performed to identify LacZ activation. An X-Gal solution was mixed with an equal volume of 1% agarose cooled to 50° C. then poured slowly over yeast colonies on the surface of agar plates. The individual clones that stained blue were picked up to be grown overnight in deep wells in order to be further analyzed.
Yeast colonies containing a peptide interacting with the bait were grown overnight in 96-well deepwells in trp-leu-liquid medium. They were then spotted using a plugger either on trp-leu-his-or trp-leu-solid medium supplemented with different concentrations of specific or non specific drugs or an equivalent amount of solvent (DMSO). […] Result was confirmed at least 3 times.
Yeast two-hybrid experiments were carried in the L40 strain (ATCC, Molsheim, France) transformed with a lexA/truncated HCV polymerase lacking the C-terminal 21 amino-acids fusion protein as a bait and the VVS001 peptide library as a prey. […] Conformation sensitive peptides or “3D-sensors” were then identified by addition to the selected individual yeast colonies of cVVS-023477 or cVVS-023476, two anti-NS5B drugs known to induce conformational changes in the target polymerase (FIG. 1b).

ER = experiment: Yeast two-hybrid spot test, control clone ER + 3D-sensor No 30-2; type: cell-based
Text: (a) Isolation of peptides interacting with the NS5BΔ21 in the yeast two-hybrid-system. Yeast cells carrying the bait (NS5BΔ21-LexA) were transformed with the prey represented by a library of random peptides (in frame with the viral VP16 activation domain). Colonies growing on selective medium and staining blue allowed the isolation of individual peptides that would specifically interact with the polymerase. (b) Isolation of conformation sensitive peptides. The interacting peptides were then tested in presence of ligands known to induce conformational changes in the bait NS5B. The “3D-sensors” were thus identified as the ones whose binding to the target polymerase was prevented by known anti-NS5B. The corresponding colonies didn't show any expression of the selection or reporter gene. (c) Characterization of NS5BΔ21 “3D-sensors” in a spot test. Here were represented 2 selected yeast colonies: one carrying the ER and its specific peptide called No 30-2 isolated previously and used as a control, the other carrying the NS5BΔ21 and its specific peptide called N21C272. Both clones were spotted on selective medium lacking histidine, leucine and tryptophane, supplemented or not with polymerase ligands and overlayed with an X-Gal staining The NS5BΔ21+N21C272 clone grew on selective medium in the absence of any NS5B ligand and stained positive for LacZ. […]

NS5BΔ21 M414T mutant = biological target: T4, NS5BΔ21 M414T mutant (Hepatitis C virus genotype 1b, UniProt P26662, M2833T); experiment: 3D-Screen-NS5B mutant profiling, Hela cells, M414T; type: cell-based, HCV genotype 1b; conditions: increasing concentrations, 24 hours
T4 construct: expressed in transfected cells; host or cells: Hela cells, plasmid pVVS516
Experimental: as §3, §1, §2, §4

NS5BΔ21 S368A mutant = biological target: T5, NS5BΔ21 S368A mutant (Hepatitis C virus genotype 1b, UniProt P26662, A2754S/A2757V/K2950R/L2476M/R2673K/S2787A/V2681I); experiment: 3D-Screen-NS5B mutant profiling, Hela cells, S368A; type: cell-based, HCV genotype 1b; conditions: increasing concentrations, 24 hours
T5 construct: expressed in transfected cells; host or cells: Hela cells, plasmid pVVS799
Experimental: as §3, §1, §2, §4

NS5BΔ21 C316Y mutant = biological target: T6, NS5BΔ21 C316Y mutant (Hepatitis C virus genotype 1b, UniProt P26662, N2735Y); experiment: 3D-Screen-NS5B mutant profiling, Hela cells, C316Y; type: cell-based, HCV genotype 1b; conditions: increasing concentrations, 24 hours
T6 construct: truncated HCV polymerase lacking the C-terminal 21 amino-acids; expressed in transfected cells; host or cells: Hela cells
Experimental: as §3, §1, §2, §4

Hela cells = experiment: Cytotoxicity assay (XTT) on transfected cells; type: cell-based, human; conditions: 100 μM
Experimental: Viability measurements were performed on cells transfected and seeded in 96 well plates as described above and incubated with drugs for 24 hours. 0.15 mg/ml of XTT solution (Roche Diagnostics, Meylan, France) were added to each well and the plates incubated for 1 hour at 37° C. The optical density of each well's cell culture supernatant was analysed using a spectrophotometer (at 450 nm with deduction of background signal at 690 nm).

[4] = listed as benzothiadiazidic compound

| Molecule | inhibition at 1 µM (native NS5BΔ21; HeLa, 1 uM final concentration, 24 hours, 3D-sensor N21C272, versus DMSO) [%] | inhibition at 10 µM (native NS5BΔ21; HeLa, 10 uM final concentration, 24 hours, 3D-sensor N21C272, versus DMSO) [%] | inhibition of the luciferase signal (in words) (native NS5BΔ21) | IC50 (native NS5BΔ21) | IC50 [1] [µM] | reporter inhibition (in words) (native NS4A-NS3 protease) | sensitivity of NS5B from two different genotypes to the drug [2] | reporter inhibition (in words) [3] | growth on selective medium and LacZ staining of the NS5BΔ21+N21C272 yeast clone (NS5BΔ21) | sensitivity of the control clone (ER + 3D sensor No 30.2 interaction) to ligand (ER) | luciferase inhibition (native NS5BΔ21; 1 uM final concentration, 24 hours, 3D-sensor N21C272, versus DMSO) [%] | luciferase inhibition (native NS5BΔ21; 10 uM final concentration, 24 hours, 3D-sensor N21C272, versus DMSO) | reporter inhibition (in words) (NS5BΔ21 M414T mutant) | reporter inhibition (in words) (NS5BΔ21 M414T mutant; [4]) | reporter inhibition (in words) (NS5BΔ21 S368A mutant) | reporter inhibition (in words) (NS5BΔ21 C316Y mutant) | reporter inhibition (in words) (NS5BΔ21 C316Y mutant; [4]) | toxicity (in words) (Hela cells) |
| --- | --- | --- | --- | --- | --- | --- | --- | --- | --- | --- | --- | --- | --- | --- | --- | --- | --- | --- |
| CCN(CC)C1CCN(C(=O)Cn2c(-c3ccc(Cl)cc3)c(C3CCCCC3)c3ccc(C(=O)O)cc32)CC1 [cVVS-023476, 1-{[6-Carboxy-2-(4-chlorophenyl)-3-cyclohexyl-1H-indol-1-yl-]acetyl}-N,N-diethylpiperidin-4-aminium Chloride] | 67 | 82.6 | strong inhibition | 0.3 µM and 0.2 to 2 µM | 0.2 to 2 | only on the NS5B platform | slightly different sensitivity | only on the NS5B platform | – | – | – | – | – | – | – | – | – | – |
| N-1-cyclobutyl-4-hydroxyquinolon-3-yl-benzothiadiazin [cVVS-023477] | – | – | strongly reduced | 3.2 µM | – | – | – | – | didn't show any growth | not affected | 51 | 90% and 83.2%+/−7.5 | the 50% signal inhibition was not reached | didn't show any noticeable reporter inhibition | didn't show any noticeable reporter inhibition | the 50% signal inhibition was not reached | didn't show any noticeable reporter inhibition | not toxic |
